Reference: ChEMBL document CHEMBL1201862, “PubChem BioAssay data set” (2004)
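The compound was tested at five concentrations on cells cultured in 96-well plates, with a 48-hour exposure period. GI50 = concentration required for 50% inhibition of growth.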 Active and inactive are the calls of the source. Rule as the data show it: active = GI50 up to about 1.1 µM and inactive = higher.

Experiments:
Test in all cases: NCI tumour cell line growth inhibition, 48 h
UO-31 = system: UO-31
HCC 2998 = system: HCC 2998
RXF 393 = system: RXF 393
SF-295 = system: SF-295
KM12 = system: KM12
NCI-H460 = system: NCI-H460
IGROV-1 = system: IGROV-1
EKVX = system: EKVX
LOX IMVI = system: LOX IMVI
HCT-15 = system: HCT-15
HOP-92 = system: HOP-92
SK-MEL-28 = system: SK-MEL-28
SNB-19 = system: SNB-19
SNB-75 = system: SNB-75
OVCAR-4 = system: OVCAR-4
UACC-62 = system: UACC-62
SW-620 = system: SW-620
HL-60 = system: HL-60
SR = system: SR

Measured: GI50

Cc1cc(Cc2cc(C)c(NC(=O)C(=O)C3C(=O)NC(=S)NC3=O)c(C(C)C)c2)cc(C(C)C)c1NC(=O)C(=O)C1C(=O)NC(=S)NC1=O
inactive: UO-31 > 100 µM | HCC 2998 > 100 µM | RXF 393 > 100 µM | SF-295 > 100 µM | KM12 > 100 µM | NCI-H460 > 100 µM | IGROV-1 > 100 µM | EKVX > 100 µM | LOX IMVI > 100 µM | HOP-92 > 100 µM | SK-MEL-28 > 100 µM | SNB-19 > 100 µM | SNB-75 > 100 µM | OVCAR-4 > 100 µM | UACC-62 > 100 µM | SW-620 > 100 µM | HL-60 > 100 µM | SR > 100 µM
> 100 µM: HCT-15

CC1=C(C(=O)Nc2ccccc2C)C(c2ccccc2C)C(C(=O)Nc2ccccc2C)=C(C)N1
18.7 µM: HCT-15
inactive: UO-31 14.5 µM | HCC 2998 18.5 µM | RXF 393 12.3 µM | SF-295 20.1 µM | KM12 18.4 µM | NCI-H460 22.6 µM | IGROV-1 18.5 µM | EKVX 20.7 µM | LOX IMVI 15 µM | HOP-92 10.1 µM | SK-MEL-28 19.9 µM | SNB-19 22.6 µM | SNB-75 22.4 µM | OVCAR-4 24.4 µM | SW-620 18.1 µM | HL-60 17 µM | SR 24.2 µM

Cc1[nH]c2ccccc2c1C(=O)CC1(O)C(=O)Nc2c(Cl)cc(Cl)cc21 (centres undefined)
40.5 µM: HCT-15
inactive: UO-31 26.3 µM | HCC 2998 51.6 µM | RXF 393 22.2 µM | SF-295 19.5 µM | KM12 61.9 µM | NCI-H460 48.9 µM | IGROV-1 53.1 µM | LOX IMVI 27 µM | SK-MEL-28 27 µM | SNB-19 41.3 µM | SNB-75 27.9 µM | OVCAR-4 9.75 µM | SW-620 22.2 µM | HL-60 14.6 µM | SR 28.4 µM

O=S1(=O)OCCOS(=O)(=O)C1(F)Br
inactive: UO-31 > 100 µM | HCC 2998 > 100 µM | RXF 393 > 100 µM | SF-295 > 100 µM | KM12 > 100 µM | EKVX > 100 µM | LOX IMVI > 100 µM | SK-MEL-28 > 100 µM | SNB-19 > 100 µM | SNB-75 > 100 µM | OVCAR-4 > 100 µM | UACC-62 > 100 µM | SW-620 > 100 µM | HL-60 > 100 µM | SR > 100 µM
> 100 µM: HCT-15

C[N+]1=c2c3cccc4cccc(c(=O)n2CCC1)c43
inactive: UO-31 17.9 µM | RXF 393 22.1 µM | SF-295 40.4 µM | KM12 31 µM | NCI-H460 18.2 µM | IGROV-1 36 µM | EKVX 24.9 µM | LOX IMVI 15.3 µM | HOP-92 28.1 µM | SK-MEL-28 19.4 µM | SNB-75 25.1 µM | OVCAR-4 18.9 µM | UACC-62 18.7 µM | SW-620 25.2 µM | HL-60 4.36 µM | SR 18.2 µM
35.6 µM: HCT-15

O=C(Cc1ccccc1)NN1C(=O)C(Cl)C1c1ccccc1O (centres undefined)
inactive: UO-31 4.54 µM | HCC 2998 20.3 µM | RXF 393 36 µM | SF-295 15.4 µM | NCI-H460 4.62 µM | IGROV-1 25.8 µM | EKVX 4.07 µM | LOX IMVI 12.1 µM | SK-MEL-28 23.5 µM | SNB-19 16.9 µM | SNB-75 34.8 µM | OVCAR-4 8.81 µM | UACC-62 19.5 µM | SW-620 15.8 µM | HL-60 3.21 µM | SR 3.98 µM
5.85 µM: HCT-15

N#CN1CC[C@@H]2CC3(CCC2C1)OCCO3 (some centres undefined)
> 100 µM: HCT-15
inactive: UO-31 > 100 µM | HCC 2998 > 100 µM | RXF 393 > 100 µM | SF-295 > 100 µM | KM12 > 100 µM | NCI-H460 > 100 µM | IGROV-1 > 100 µM | EKVX > 100 µM | HOP-92 > 100 µM | SNB-19 > 100 µM | SNB-75 > 100 µM | OVCAR-4 > 100 µM | UACC-62 > 100 µM | SW-620 > 100 µM | HL-60 > 100 µM | SR > 100 µM

O=C1NC(=S)NC(=O)C1=Cc1ccc[nH]1
2.87 µM: HCT-15
inactive: UO-31 16.6 µM | HCC 2998 11.8 µM | RXF 393 2.2 µM | SF-295 10.5 µM | KM12 3.48 µM | NCI-H460 8.11 µM | IGROV-1 19.6 µM | EKVX 24 µM | LOX IMVI 9.06 µM | HOP-92 19.6 µM | SK-MEL-28 24.5 µM | SNB-19 25.8 µM | SNB-75 18 µM | OVCAR-4 15.3 µM | UACC-62 16.7 µM | SW-620 4.81 µM | HL-60 5.27 µM | SR 3.62 µM
